Like-named read-outs stand apart in the source and are kept apart here.
T1: rLen c 3 (Lens culinaris, UniProt A0AT29)
T1 construct: with the formation of the large fragment 1–80 and the protein without C-terminal Phe93; His8-TrxL (octahistidine-thioredoxin carrier) (N, cleaved yes); made in house; host or cells: Escherichia coli BL-21 (DE3)
T1 sequence (A0AT29 26-118): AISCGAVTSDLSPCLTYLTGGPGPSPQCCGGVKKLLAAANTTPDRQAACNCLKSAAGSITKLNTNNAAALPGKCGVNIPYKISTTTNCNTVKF

B1: bovine α-casein: bovine α-casein (Sigma), control substrate for proteolytic digestion (protein, UniProt P02662 16-214; P02663 16-222, looked up)
Alpha-S1-casein: RPKHPIKHQGLPQEVLNENLLRFFVAPFPEVFGKEKVNELSKDIGSESTEDQAMEDIKQMEAESISSSEEIVPNSVEQKHIQKEDVPSERYLGYLEQLLRLKKYKVPQLEIVPNSAEERLHSMKEGIHAQQKEPMIGVNQELAYFYPELFRQFYQLDAYPSGAWYYVPLGTQYTDAPSFSDIPNPIGSENSEKTTMPLW
Alpha-S2-casein: KNTMEHVSSSEESIISQETYKQEKNMAINPSKENLCSTFCKEVVRNANEEEYSIGSSSEESAEVATEEVKITVDDKHYQKALNEINQFYQKFPQYLQYLYQGPIVLNPWDQVKRNAVPITPTLNREQLSTSEENSKKTVDMESTEVFTKKTKLTEEEKNRLNFLKKISQRYQKFALPQYLKTVYQHQKAMKPWIQPKTKVIPYVRYL

Legend:
[1] = target: T1, rLen c 3; design: method as in PMID 28266846; conditions: among saturated FAs; cited from earlier work
[2] = target: T1, rLen c 3; assay: TNS displacement lipid binding assay; design: species or system lentil; conditions: for IC50: 25 °C, 4 μM TNS, 4 μM rLen c 3; for Change of rLen c 3 affinity for the ligand at acidic pH: pH 2.5 compared with pH 7.4
Experimental: The ability of rLen c 3 to bind lipids was assayed by monitoring the displacement of the fluorescent probe TNS. Fluorescence intensity was measured at 25 °C with a F-2710 spectrofluorimeter (Hitachi, Tokyo, Japan), using a […] slit width for both excitation (λ = 320 nm) and emission (λ = 437 nm) and the measurement taken for no longer than 1.5–2 s. After equilibrating TNS (4 μM) in 10 mM phosphate buffer, pH 7.4, or 150 mM sodium chloride, pH 2.5, for 2 min with gentle mixing, the 2 mM of competing ligand was titrated into the 2 mL of 4 μM rLen c 3 solution in 1 μL aliquots. The resulting data were fitted by using a sigmoidal curve-fitting in GraphPad Prism from which the concentration able to displace 50% of the TNS (IC50) was calculated. The dependence of the ligand binding on temperature was performed at 20, 40, 60, 90, and 20 °C, after cooling down as previously described. Temperature was checked with a temperature probe in the cuvette. Each experiment was performed in triplicate, independently.

[3] = target: T1, rLen c 3; assay: Effect of lipid ligands on secondary structure and thermostability of rLen c 3 (CD spectroscopy); format: physicochemical, lentil; conditions: for Effect of ligand on rLen c 3 thermostability (resistance to thermal denaturation): heating up to 98.5 °C; for Effect of ligand on rLen c 3 thermostability (resistance to thermal denaturation) / Recovery of rLen c 3 structure after cooling down in the presence of ligand: pH 7.4, ligand 1 mM; for Recovery of rLen c 3 structure after cooling down in the presence of ligand: cooling down to 20 °C after 98.5 °C
Experimental: Circular dichroism spectra were recorded at different temperatures, using a J-810 spectropolarimeter (Jasco, Hachioji, Tokyo, Japan) in a 0.1 cm path length quartz cell (Hellma GmbH & Co. KG, Mullheim, Germany) in the 190–250 nm range, and 0.2, using solutions of rLen c 3 in 10 mM phosphate buffer, pH 7.4, or 150 mM sodium chloride, pH 2.5, simulated gastric fluid, at a concentration of 17 µM. Fatty acids or lysolipids were added at a final concentration of 1 mM. Each experiment was performed twice, independently.

[4] = target: T1, rLen c 3; assay: Effect of lipid ligands on gastrointestinal digestion of rLen c 3; format: in vitro ADME, lentil; conditions: for Effect of ligand on rLen c 3 degradation rate (proteolytic digestion): gastric then duodenal digestion
Experimental: (§1) Simulation of gastrointestinal digestion in vitro was performed as described in [15]. Briefly, gastric digestion was performed for 2 h, using 50 ng of pepsin (p) (Sigma) per 1 μg of rLen c 3 in 0.1 M HCl, pH 2.0 (final protein concentration 0.05 mM). For duodenal digestion, pH of the mixture resulting from gastric digestion was adjusted to 8.0 by addition of ammonium bicarbonate. The obtained mixture was incubated for 24 h at 37 °C with 2.5 ng of trypsin (t) (Promega, Madison, WI, USA) and 10 ng of α-chymotrypsin (ch) (Sigma) per 1 μg of the substrate. Degree of proteolysis was monitored by sodium dodecyl sulfate polyacrylamide gel electrophoresis (SDS-PAGE) under reducing conditions and reversed-phase high-performance liquid chromatography (RP-HPLC) on Luna C18 column (5 μm, 250 × 4.6 mm; Phenomenex, Torrance, CA, USA) at a flow rate of 0.5 mL/min, using a gradient of acetonitrile concentration from 5 to 65% for 45 min in 0.1% trifluoroacetic acid (TFA). Gel analysis was performed, using a densitometer. Electroblotting and subsequent N-terminal protein sequencing were performed as described. The protein was preheated at 100 °C for 30 min to study the effect of temperature on allergen stability. rLen c 3 was preloaded with various lipid ligands (LTP to lipid molar ratio 1:4) for 10 min, in order to investigate their effects on allergen resistance to proteolytic digest. As a control of the influence of lipid ligands on the work of proteolytic enzymes, the same reactions were carried out, using bovine α-casein (Sigma) as a substrate. Some independent experiments were performed in each case.

[5] = system: pepsin; assay: In vitro gastric digestion (SDS-PAGE); format: in vitro ADME; conditions: first 5 min; control substrate
Experimental: as §1, with “As a control of the influence of lipid ligands on the work of proteolytic enzymes, the same reactions were carried out, using bovine α-casein (Sigma) as a substrate. Some independent experiments were performed in each case.” left out

[6] = 10 mM phosphate buffer, pH 7.4, read-out: IC50 (TNS displacement)
[7] = 150 mM sodium chloride, pH 2.5, read-out: IC50 (TNS displacement)

Row | Molecule | Binding capacity / affinity of Len c 3 for saturated fatty acids [1] | IC50 [2, 6] [µM] | IC50 [2, 7] [µM] | Effect of ligand on rLen c 3 thermostability (resistance to thermal denaturation) [3] | Effect of ligand on rLen c 3 degradation rate (proteolytic digestion) ([4]; LTP to lipid molar ratio 1:4) | Change of rLen c 3 affinity for the ligand at acidic pH [2] | Ability of rLen c 3 to bind the ligand after heating and cooling down ([2]; pH 7.4, heated from 20 to 90 °C, then cooled down to 20 °C) | Recovery of rLen c 3 structure after cooling down in the presence of ligand [3] | Effect of ligand on secondary structure of rLen c 3 ([3]; pH 7.4, 20 °C, ligand 1 mM) | Effect of protein preheating before digestion in the presence of ligand on rate of allergen degradation ([4]; after 4 and 24 h, effect more pronounced with LPPC) | Degradation of rLen c 3 in the presence of ligand ([4]; 24 h of duodenal digestion, LTP to lipid molar ratio 1:4) | IC50 ([2]; IC50 (TNS displacement), 10 mM phosphate buffer, pH 7.4) [µM] | IC50 ([2]; IC50 (TNS displacement), 150 mM sodium chloride, pH 2.5) [µM] | Degradation by pepsin [5]
1 | CCCCCCCCCCCCCCCCCCCC(=O)O [ARA, arachidic C20:0] | lower affinity |  |  |  |  |  |  |  |  |  |  |  |  | 
2 | CCCCCCCCCCCCCCCCCCCCCC(=O)O [BEH, behenic (docosanoic) acid] | lower affinity | 5.9 ± 0.2 | 6.2 ± 0.1 | slight protective effect | slightly accelerated the allergen proteolysis |  |  |  |  |  |  |  |  | 
3 | CCCCCCCCCCCC(=O)O [LAU, lauric acid] | highest binding capacities | 2.1 ± 0.2 | 2.1 ± 0.01 | slight protective effect | quickly digested by trypsin/chymotrypsin | remained unchanged |  |  |  |  |  |  |  | 
4 | CCCCCCCCCCCCCCCC(=O)OC[C@@H](O)COP(=O)([O-])OCC[N+](C)(C)C [LPPC, lyso-palmitoyl phosphatidylcholine] |  | 7.7 ± 0.02 | 7.3 ± 0.01 | a complete denaturation of the protein did not occur even at 98.5 °C | to a lesser extent, LPPC slowed down the allergen degradation | slightly increased | not restored | recovery of the protein structure was not observed | increased the percentage of α-helices | slightly increased |  |  |  | 
5 | CCCCCCCC/C=C\CCCCCCCC(=O)O [OLE, oleic acid] |  | 2.4 ± 0.1 | 2.6 ± 0.1 | increased the rLen c 3 thermostability | more pronounced | decreased |  | partial protein renaturation |  |  | ~ 55% |  |  | 
6 | CCCCCCCCCCCCCCCCCC(=O)O [STE, stearic acid] |  |  |  | increased the rLen c 3 thermostability | slowed down the allergen degradation | decreased |  | partial protein renaturation |  |  |  | 4.5 ± 0.1 | 5.1 ± 0.1 | 
7 | B1 |  |  |  |  |  |  |  |  |  |  |  |  |  | almost completely degraded
